The source of these data is US3950334A, “O-Alkyl-S-alkyl-O-[6-alkyl- or 6-halo-pyridazin-(3)-yl]-(thiono)thiol-phosphoric acid esters” (priority 1973, dated 1976).

The LD50 is the dose expected to kill half of the subjects tested. Low readings indicate a more toxic substance, high ones a less toxic substance.

Each structure is given as a SMILES string.

In series [1] the test system is warm-blooded animals. The note with it: in words; known compounds; cited from earlier work.
Series [2] is described as follows: Toxicity test/peroral. The following applies: in vivo, po; Albino rat, peroral, evaluation after 7 days. The procedure:
Test animal: Albino rat (Rattus norvegicus)
To produce a suitable preparation of active compound, 3 parts by weight of active compound were mixed with 2.8 parts by weight of highly-dispersible silica and 4.2 parts by weight of talc. Suspensions which contained, in 1 ml of liquid, the amount of active compound to be applied per 100 g of animal weight, were prepared from the above active-compound concentrate, with a little added powdered vegetable gum, by grinding with water. Dosing was effected volumetrically after weighing the test animals. A steel knob-ended probe was used for oral administration. The evaluation was carried out in each case after the end of the above-mentioned time interval, calculated from the administration of the active compound.
The LD50 values (dose of active compound at which 50% of the treated animals were killed) were determined in the usual manner from the mortality figures of the doses, which were varied in geometrical progression.
The active compounds and LD50 values can be seen from the table which follows: […]

The subject of series [3] is two-spotted spider mite (Tetranychus urticae). In words: Tetranychus test (resistant). Type of series: in vivo. The following applies: 48 h, after 2 days, resistant Tetranychus urticae on bean plants, read-out: Degree of destruction in % after 2 days; for mortality at 0.01 %: active compound concentration 0.01 %; for mortality at 0.1 %: active compound concentration 0.1 %. As for the experimental part: Tetranychus test (resistant)
Solvent: 3 parts by weight of acetone
Emulsifier: 1 part by weight of alkylaryl polyglycol ether
To produce a suitable preparation of active compound, 1 part by weight of the active compound was mixed with the stated amount of solvent containing the stated amount of emulsifier and the concentrate was diluted with water to the desired concentration.
These bean plants were heavily infested with the two-spotted spider mite (Tetranychus urticae) in all stages of development.
After the specified periods of time, the effectiveness of the preparation of active compound was determined by counting the dead mites. The degree of destruction thus obtained was expressed as a percentage: 100% means that all the spider mites were killed, whereas 0% means that none of the spider mites were killed.
The active compounds, the concentrations of the active compounds, the evaluation times and the results can be seen from the following table: […]

Series [4] relates to Musca domestica. In words: LT100 test for Diptera. Type of series: in vivo. The note with it: time for 100% destruction. The procedure: Test insects: Musca domestica
2 parts by weight of active compound were dissoled in 1,000 parts by volume of solvent. The solution so obtained was diluted with further solvent to the desired lower concentrations.
2.5 ml of the solution of active compound were pipetted into a Petri dish. On the bottom of the Petri dish there was a filter paper with a diameter of about 9.5 cm. The Petri dish remained uncovered until the solvent had completely evaporated. The amount of active compound per m^2 of filter paper varied with the concentration of the solution of active compound. About 25 test insects were then placed in the Petri dish and it was covered with a glass lid.
The condition of the test insects was continuously observed. The time which was necessary for 100% destruction was determined.
The test insects, the active compounds, the concentrations of the active compounds and the times at which there was 100% destruction can be seen from the following table: […]

[5] abbreviates: active compound concentration of the solution 0.02 %.
The mark [6] stands for this setting: active compound concentration of the solution 0.2 %.

With `CCOP(=S)(OCC)Oc1ccc(Cl)nn1` [Compound A, O,O-diethyl-O-[6-chloro-pyridazin-(3)-yl]-thionophosphoric acid ester], in series [1], the “toxicity to warm-blooded animals” value is given as “high toxicity to warm-blooded animals”. The compound also returned an LD50 at 168 h in series [2] of roughly 5 mg/kg.
Regarding `CCCSP(=S)(OCC)Oc1ccc(Br)nn1` (stereo not drawn) [Compound 1, O-ethyl-S-n-propyl-O-[6-bromo-pyridazin(3)-yl]-thionothiolphosphoric acid ester], in series [3], the mortality at 0.01 % was 100% and the mortality at 0.1 % is 100%. Moreover, the LD50 at 168 h in series [2] fell in the range of 100 to 250 mg/kg.
Consider `CCCSP(=S)(OCC)Oc1ccc(C)nn1` (stereo not drawn) [Compound 2], for which the LD50 at 168 h in series [2] is roughly 50 mg/kg.
Take `CCOP(=S)(OCC)Oc1ccc(C)nn1` [Compound B, O,O-diethyl-O-[6-methyl-pyridazin-(3)-yl]-thionophosphoric acid ester]: the “toxicity to warm-blooded animals” value in series [1] was “high toxicity to warm-blooded animals”. Also, in series [4] (setting [5]), the “LT100 in hours” value is 8 h. The “LT100 in minutes (')” value in series [4] (setting [6]) came out at 135 min. Further, in series [3], the mortality at 0.01 % was 20% and the mortality at 0.1 % is 100%. This compound displayed an LD50 at 168 h in series [2] of 0.5 to 1 mg/kg.
For `CCCSP(=S)(OCC)Oc1ccc(Cl)nn1` (stereo not drawn) [Compound 3], the figures for the “LT100 in minutes (')” value in series [4] (setting [5]) and in series [4] (setting [6]) were 165 min and 55 min, respectively. Moreover, the LD50 at 168 h in series [2] lay in the range of 100 to 250 mg/kg.
